Assay [1] relates to HEK293. Briefly: optical interference in Abeta FP readout, dose response, artefact control for IDE activator project, biochemical, fluorescence polarization (AID 588442). The assay is classed as functional, cell-based. Particulars: Homo sapiens.
For assay [2], the target named is T1, Insulin-degrading enzyme (Homo sapiens, UniProt P14735).
T1 sequence (P14735 whole entry): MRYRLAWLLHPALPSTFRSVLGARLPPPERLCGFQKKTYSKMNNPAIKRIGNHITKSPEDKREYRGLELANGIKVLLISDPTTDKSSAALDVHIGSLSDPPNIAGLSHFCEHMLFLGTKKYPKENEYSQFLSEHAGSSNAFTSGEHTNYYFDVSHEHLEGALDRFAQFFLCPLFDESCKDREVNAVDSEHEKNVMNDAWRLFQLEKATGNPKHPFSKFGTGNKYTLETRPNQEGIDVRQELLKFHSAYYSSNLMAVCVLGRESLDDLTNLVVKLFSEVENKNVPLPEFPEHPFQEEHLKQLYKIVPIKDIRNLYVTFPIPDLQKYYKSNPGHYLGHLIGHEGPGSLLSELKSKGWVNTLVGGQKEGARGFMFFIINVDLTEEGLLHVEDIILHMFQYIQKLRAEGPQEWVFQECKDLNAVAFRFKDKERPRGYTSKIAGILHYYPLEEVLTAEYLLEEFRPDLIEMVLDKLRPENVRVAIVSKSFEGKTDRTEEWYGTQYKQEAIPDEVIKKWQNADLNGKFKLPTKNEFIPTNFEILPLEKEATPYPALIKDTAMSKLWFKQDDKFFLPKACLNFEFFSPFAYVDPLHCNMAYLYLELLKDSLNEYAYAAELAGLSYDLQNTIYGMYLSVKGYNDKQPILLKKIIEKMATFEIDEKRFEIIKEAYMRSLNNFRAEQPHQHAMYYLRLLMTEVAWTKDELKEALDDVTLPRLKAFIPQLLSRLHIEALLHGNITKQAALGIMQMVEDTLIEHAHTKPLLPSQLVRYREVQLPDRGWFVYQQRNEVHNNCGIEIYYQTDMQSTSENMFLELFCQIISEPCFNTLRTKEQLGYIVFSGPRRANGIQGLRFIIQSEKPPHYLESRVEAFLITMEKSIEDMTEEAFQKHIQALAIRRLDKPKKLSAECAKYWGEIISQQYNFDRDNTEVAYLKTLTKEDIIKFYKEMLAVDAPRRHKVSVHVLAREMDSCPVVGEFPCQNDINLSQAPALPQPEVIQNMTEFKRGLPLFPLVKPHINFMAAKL
Briefly: cellular IDE activation of Abeta substrate cleavage – fluorescence polarization, HEK cells, dose response (AID 588439). The assay is classed as functional, cell-based.

The test system of assay [3] is HEK293. Briefly: membrane integrity loss in HEK cells – cell-based, fluorescence, cytotoxicity control for IDE activator project, dose response (AID 588440).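 Also: cytotoxicity by LDH release measuring loss of membrane integrity.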 Type of assay: functional. Particulars: Homo sapiens.
In assay [4] the target is T1, Insulin-degrading enzyme. The assay is described as follows: recombinant IDE activation, cell-free – biochemical, fluorescence polarization, counter-screen for IDE activator project, dose response (AID 588681).
The target of assay [5] is 72 kDa type IV collagenase (Homo sapiens, UniProt P08253). Briefly: Dose Response validation of uHTS RPN11 inhibitor hits using a MMP-2 Fluorescence assay. Type of assay: functional.
Assay [6] has as its target Prothrombin (Bos taurus, UniProt P00735). The assay is described as follows: thrombin protease inhibitors – biochemical, fluorescence polarization, uHTS hits, dose response (AID 602369). The assay is classed as functional.
For assay [7], the target named is 26S proteasome non-ATPase regulatory subunit 14 (Homo sapiens, UniProt O00487). The assay is described as follows: inhibition of proteasome subunit RPN11 – biochemical, fluorescence polarization, uHTS hits, confirmation (AID 602368). The assay is classed as functional.
Assay [8] deals with Low molecular weight phosphotyrosine protein phosphatase (Homo sapiens, UniProt P24666). Type of assay: functional. The following applies: read-out: IC50_Mean.
Assay [9] can be described thus: Luminescence Cell-Based Dose Confirmation HTS to Identify Inhibitors of Platelet Dense Granule Release. [Related pubchem assays: 1663 (Primary HTS), 1678 (Summary of Project)]. Type of assay: functional.
Assay [10] has as its target Luciferin 4-monooxygenase (Photinus pyralis, UniProt P08659). Briefly: inhibition of purified Photinus pyralis luciferase – biochemical, luminescence, dose response (AID 1891).
Assay [11] is described as follows: viability of uninfected HEp-2 cells – cell-based, HTS, cytotoxicity control for RSV inhibitor project, dose response (AID 2410). Type of assay: functional. The following applies: human respiratory syncytial virus.
Assay [12] deals with Tyrosine-protein phosphatase non-receptor type 5 (Homo sapiens, UniProt P54829). Briefly: PTPN5 enzyme inhibition – biochemical, fluorescence intensity, uHTS hits, confirmation (AID 602372). Type of assay: functional. Particulars: read-out: IC50_Mean.
Assay [13] has as its target Dual specificity protein phosphatase 3 (Homo sapiens, UniProt P51452). The assay is described as follows: VHR phosphatase inhibition, dose response, selectivity assay for STEP inhibitor project, biochemical (AID 602374). The assay is classed as functional. The following applies: read-out: IC50_Mean.
Assay [14] addresses Tyrosine-protein phosphatase non-receptor type 11 (Homo sapiens, UniProt Q06124). Briefly: PTPN11 enzyme inhibitors – biochemical, selectivity assay for STEP inhibitor project, dose response (AID 602367). Particulars: read-out: IC50_Mean. Type of assay: functional.
Assay [15] addresses Induced myeloid leukemia cell differentiation protein Mcl-1 (Homo sapiens, UniProt Q07820). Type of assay: functional.

Calls of active or inactive are those of the source.

Sequence of 72 kDa type IV collagenase (P08253 whole entry): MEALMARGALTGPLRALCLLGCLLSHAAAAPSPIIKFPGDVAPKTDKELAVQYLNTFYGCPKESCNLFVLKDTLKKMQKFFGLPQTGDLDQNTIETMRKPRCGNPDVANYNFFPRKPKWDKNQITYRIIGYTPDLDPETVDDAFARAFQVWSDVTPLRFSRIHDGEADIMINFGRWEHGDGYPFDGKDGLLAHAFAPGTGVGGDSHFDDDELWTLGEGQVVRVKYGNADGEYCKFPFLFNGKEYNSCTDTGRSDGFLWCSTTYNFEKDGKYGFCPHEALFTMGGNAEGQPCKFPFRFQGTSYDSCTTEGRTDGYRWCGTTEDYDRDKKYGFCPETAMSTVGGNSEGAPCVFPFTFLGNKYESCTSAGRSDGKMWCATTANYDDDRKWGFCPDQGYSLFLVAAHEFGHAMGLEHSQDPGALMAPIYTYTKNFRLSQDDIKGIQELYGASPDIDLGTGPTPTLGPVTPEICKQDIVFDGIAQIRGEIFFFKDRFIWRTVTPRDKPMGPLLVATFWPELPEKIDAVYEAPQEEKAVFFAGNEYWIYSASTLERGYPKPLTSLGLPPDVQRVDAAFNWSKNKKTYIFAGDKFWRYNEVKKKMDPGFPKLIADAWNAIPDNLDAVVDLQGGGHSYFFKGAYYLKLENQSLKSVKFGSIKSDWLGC
Sequence of 26S proteasome non-ATPase regulatory subunit 14 (O00487 whole entry): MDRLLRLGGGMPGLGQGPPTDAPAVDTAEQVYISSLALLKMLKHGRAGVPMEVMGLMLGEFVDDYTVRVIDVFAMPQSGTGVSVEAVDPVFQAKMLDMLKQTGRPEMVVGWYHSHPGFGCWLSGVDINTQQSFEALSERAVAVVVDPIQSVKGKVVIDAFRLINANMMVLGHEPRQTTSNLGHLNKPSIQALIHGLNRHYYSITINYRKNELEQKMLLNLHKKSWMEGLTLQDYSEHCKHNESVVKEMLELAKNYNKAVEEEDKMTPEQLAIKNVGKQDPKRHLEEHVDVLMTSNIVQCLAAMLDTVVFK
Sequence of Induced myeloid leukemia cell differentiation protein Mcl-1 (Q07820 whole entry): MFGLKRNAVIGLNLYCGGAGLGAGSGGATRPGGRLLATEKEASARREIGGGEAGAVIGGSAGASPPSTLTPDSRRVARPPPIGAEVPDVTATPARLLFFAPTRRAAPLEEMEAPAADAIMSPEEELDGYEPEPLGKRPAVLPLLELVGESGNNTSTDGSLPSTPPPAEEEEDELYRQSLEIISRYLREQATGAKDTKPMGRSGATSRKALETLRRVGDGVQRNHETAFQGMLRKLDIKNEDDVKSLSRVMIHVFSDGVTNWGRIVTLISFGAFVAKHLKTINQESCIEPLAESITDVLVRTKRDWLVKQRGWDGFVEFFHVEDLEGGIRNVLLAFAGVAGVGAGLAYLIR
Sequence of Luciferin 4-monooxygenase (P08659 whole entry): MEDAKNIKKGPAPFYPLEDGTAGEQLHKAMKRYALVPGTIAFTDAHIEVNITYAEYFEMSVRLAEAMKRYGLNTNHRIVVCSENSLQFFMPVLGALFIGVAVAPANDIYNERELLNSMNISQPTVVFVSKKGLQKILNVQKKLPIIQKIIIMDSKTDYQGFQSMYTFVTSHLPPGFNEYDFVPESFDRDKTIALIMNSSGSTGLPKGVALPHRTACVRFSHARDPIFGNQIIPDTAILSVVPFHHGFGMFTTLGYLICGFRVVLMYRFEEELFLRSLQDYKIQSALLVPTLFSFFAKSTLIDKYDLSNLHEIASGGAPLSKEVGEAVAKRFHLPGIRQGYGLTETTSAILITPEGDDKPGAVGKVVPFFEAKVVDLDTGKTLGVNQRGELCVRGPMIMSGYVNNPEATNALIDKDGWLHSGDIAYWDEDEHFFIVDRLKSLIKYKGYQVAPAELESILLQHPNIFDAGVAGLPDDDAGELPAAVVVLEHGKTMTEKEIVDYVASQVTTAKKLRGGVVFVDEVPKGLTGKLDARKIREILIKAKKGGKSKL
Sequence of Tyrosine-protein phosphatase non-receptor type 11 (Q06124 whole entry): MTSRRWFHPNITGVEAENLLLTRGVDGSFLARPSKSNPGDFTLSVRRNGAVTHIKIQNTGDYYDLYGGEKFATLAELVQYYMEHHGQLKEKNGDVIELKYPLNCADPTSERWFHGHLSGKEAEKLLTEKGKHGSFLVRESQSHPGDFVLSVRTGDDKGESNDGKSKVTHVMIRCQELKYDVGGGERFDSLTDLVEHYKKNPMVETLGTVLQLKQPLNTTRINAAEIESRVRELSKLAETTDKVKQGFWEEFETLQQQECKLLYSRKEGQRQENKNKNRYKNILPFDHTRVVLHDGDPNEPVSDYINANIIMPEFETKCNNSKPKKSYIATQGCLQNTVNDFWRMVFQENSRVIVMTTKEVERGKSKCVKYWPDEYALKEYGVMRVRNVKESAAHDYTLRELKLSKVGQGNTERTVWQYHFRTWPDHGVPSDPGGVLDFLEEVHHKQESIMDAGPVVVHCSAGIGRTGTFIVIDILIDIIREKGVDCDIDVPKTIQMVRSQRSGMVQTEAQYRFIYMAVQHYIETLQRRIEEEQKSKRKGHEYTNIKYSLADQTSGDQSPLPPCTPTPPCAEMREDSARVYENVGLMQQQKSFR
Sequence of Dual specificity protein phosphatase 3 (P51452 whole entry): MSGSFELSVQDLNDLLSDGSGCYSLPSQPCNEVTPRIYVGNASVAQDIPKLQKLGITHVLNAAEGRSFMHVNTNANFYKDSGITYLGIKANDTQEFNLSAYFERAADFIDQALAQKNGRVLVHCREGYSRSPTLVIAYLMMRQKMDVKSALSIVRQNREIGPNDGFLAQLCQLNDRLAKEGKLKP
Sequence of Low molecular weight phosphotyrosine protein phosphatase (P24666 whole entry): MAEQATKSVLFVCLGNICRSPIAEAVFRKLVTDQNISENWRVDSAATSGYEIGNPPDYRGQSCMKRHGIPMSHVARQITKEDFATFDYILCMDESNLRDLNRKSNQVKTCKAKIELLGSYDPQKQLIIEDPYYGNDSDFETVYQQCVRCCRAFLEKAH
Sequence of Tyrosine-protein phosphatase non-receptor type 5 (P54829 whole entry): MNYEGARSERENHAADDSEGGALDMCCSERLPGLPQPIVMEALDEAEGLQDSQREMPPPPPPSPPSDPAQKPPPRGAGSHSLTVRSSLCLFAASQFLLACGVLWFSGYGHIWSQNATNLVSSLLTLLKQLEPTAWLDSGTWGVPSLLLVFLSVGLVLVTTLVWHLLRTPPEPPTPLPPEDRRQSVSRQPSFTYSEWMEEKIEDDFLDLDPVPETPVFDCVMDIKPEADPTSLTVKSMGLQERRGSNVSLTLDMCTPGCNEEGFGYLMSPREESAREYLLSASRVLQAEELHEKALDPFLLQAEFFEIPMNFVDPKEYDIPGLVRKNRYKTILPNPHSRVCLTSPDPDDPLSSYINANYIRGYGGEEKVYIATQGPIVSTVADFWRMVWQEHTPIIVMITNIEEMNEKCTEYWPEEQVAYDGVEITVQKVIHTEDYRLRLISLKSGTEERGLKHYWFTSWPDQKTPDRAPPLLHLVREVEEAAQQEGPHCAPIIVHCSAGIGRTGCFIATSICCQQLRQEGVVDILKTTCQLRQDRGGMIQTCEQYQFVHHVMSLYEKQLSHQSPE

As to `Cc1cc(Oc2ccc(C#N)cc2)nc(N2CCOCC2)n1`, the EC50 in assay [1], in assay [2] and in assay [4] was > 54.7 µM (inactive) each time. Besides, the IC50 in assay [3] was > 89.2 µM (inactive).
Take `O=C(/C=C/c1cccs1)Nc1cccc(NC(=O)/C=C/c2cccs2)n1`: the figures for the IC50 in assay [5], in assay [6] and in assay [7] were > 100 µM (inactive), 45.6 µM (active) and 48.3 µM (active), respectively.
Take `Cc1cccc2nc(-c3ccccc3)nc(N[C@@H](CO)c3ccccc3)c12`: the IC50 in assay [8] is 17 µM (active). Further, the EC50 in assay [9] and in [10] was > 112 µM (not active) each time. Moreover, the CC50 in assay [11] was 19 µM (active).
Consider `CCN1CCN(C(=S)c2ccc(OCC(=O)NCc3ccccc3)cc2)CC1`, for which the IC50 in [12] was 45.3 µM (inactive); in assay [13] it was 1.92 µM (active); in assay [14] it was 3.35 µM (active).
Turning to `COc1ccc(/C=C2\C(=O)NC(=S)N2C(=O)c2ccc(C)cc2)cc1`, the IC50 is 20 µM (active) in assay [5], 1.53 µM (not active) in [15], 40.2 µM (active) in [6] and 18.8 µM (active) in assay [7].

The record behind these values is ChEMBL document CHEMBL1201862, “PubChem BioAssay data set” (2004).
